Experimental data published in US20250235413A1, “MODIFIED FORMS OF AMBROXOL FOR THERAPEUTIC USE” (Zywie, LLC, priority 2021, published 2025).

Columns and labels:
[1] = Metabolic stability in human liver microsomes; assay type: in vitro ADME; conditions: human liver microsomes 1 mg/mL protein, 1 μM compound, 37° C., NADPH-regenerating system; for half-life at 1 μM: 0-120 min, read-out: In vitro elimination half-life t1/2; for microsomal CLint at 1 μM: read-out: In vitro intrinsic clearance CLint-microsomes
Procedure: Study design—Test compounds (ambroxol and deuterated analogs) were dissolved in dimethylsulfoxide (DMSO) to prepare 1 mM stock solutions. The compounds were added to preparations of human liver microsomes (200 μL per incubation at a 1 mg/mL protein concentration) such that the final compound concentration was 1 μM. The samples were incubated at 37° C. in the presence of a reduced nicotinamide adenine dinucleotide phosphate (NADPH)-regenerating system (NADP, 1 mM, pH 7.4; glucose-6-phosphate, 5 mM, pH 7.4; glucose-6-phosphate dehydrogenase, 1 unit/mL)). A positive control (midazolam, 1 μM, 0.1 mg/mL protein) was incubated concurrently to ensure the microsome preparation was performing as expected. Samples were obtained at t=0, 30, 60, and 120 min and quenched by addition of acetonitrile.
Quenched samples were analyzed by liquid chromatography coupled to tandem mass spectrometry detection (LC/MS-MS). The concentration of the test compounds at each time point were converted to percent remaining relative to the concentration of the compound at time t=0 (which serves as the 100% value). All data points were included in data processing. The rate constant of elimination (kel, min^−1) of each test compound was determined from the time course of disappearance of the parent compound based on fitting the experimental data to a single exponential decay formula (At=Aoe^−kelt, where At is the % remaining at time t, Ao is 100%, kel is the elimination rate constant, and t is time). The in vitro half-life (t1/2) was determined from kel based on the formula: t1/2=ln(2)/kel. The rate constant of elimination was also used to calculate the in vitro intrinsic clearance CLint-microsomes (μL/min/mg protein).

male BDF1 mice = experiment: Lifespan study in mice fed compound in chow; assay type: in vivo, mouse; conditions: 50 mg/kg daily as chow supplement, vs control (FIG. 3)
Procedure: Group 1 represents control animals that were not administered ambroxol; and Group 2 represents animals administered 50 mg/kg (body weight) of ambroxol daily as a chow supplement, starting at 2 months of age.
Weaned male BDF1 mice raised from pups, housed 1-4 animals per cage and fed Teklad 7013 NIH-31 rodent chow and water ad libitum, at 2 months of age, are divided into two roughly equal groups of 22-25 animals. One group continues to be fed the Teklad chow as before (control); the other group is switched to Teklad chow formulated with compound 2 at 300 mg per kg of chow. This formulation was designed, based on the average ad libitum chow consumption of an adult male BDF1 mouse, to deliver 50 mg/kg/day (based on body mass) to each mouse in the treated group. Mice are maintained on this diet until they die naturally or until they reach 16 months of age, at which time the experiment ends. During the course of the experiment, all mice are periodically removed from their cages and handled in the course of subjecting them to various sensorimotor, cognitive, and/or behavioral tests.
Group 1 represents control animals that were not administered ambroxol; Group 2 represents animals administered 50 mg/kg of ambroxol daily as a chow supplement, starting at 2 months of age.

mice = experiment: Cognitive acuity test (novel place recognition) in mice at 7 months; assay type: in vivo, mouse
Source text: This is a cognitive test to measure short-term working memory, involving recognition of a familiar object found in an unfamiliar place (see Magen et al., Eur J Neurosci 35:870-882, 2012; Magen and Chesselet, J Parkinson's Disease 1:217-227, 2011). A Discrimination Index (DI)=(tnovel−tfamiliar)/(tnovel+tfamiliar) was used to assess the time spent exploring near the object in a novel place (“tnovel”) vs. the total exploration time overall. Discrimination Index scores greater than zero are considered to indicate good place recognition memory.
Three groups of mice, with at least 13 mice in each group, are given a cognitive acuity test at 7 months. The three groups of mice are: “High Dose” Group (150 mg/kg/day of compound 2), “Low Dose” (50 mg/kg/day of compound 2) Group, and a Control Group (no compound 2).
The dosage results are substantially lower than doses previously observed to effectively promote GCase chaperoning activity in mice (e.g., Migdalska-Richards et al., Ann Neurol 80:766-775, 2016).

| SMILES | half-life at 1 μM [1] [h] | microsomal CLint at 1 μM [1] [µL/min/mg] | Lifespan (male BDF1 mice; starting at 2 months of age) | Healthspan (health of surviving animals when sacrificed) (male BDF1 mice) | Cognitive acuity, Low Dose Group (mice; 50 mg/kg/day) | Cognitive acuity, High Dose Group (mice; 150 mg/kg/day) | Cognitive acuity (mice; High Dose and Low Dose vs Control (FIG. 4)) |
| --- | --- | --- | --- | --- | --- | --- | --- |
| [2H]C([2H])(N[C@H]1CC[C@H](O)CC1)c1cc(Br)cc(Br)c1N [ZW-001] | 1.65 | 7 | – | – | – | – | – |
| Nc1c(Br)cc(Br)cc1CN[C@H]1CC[C@H](O)CC1 [ambroxol, trans-4-((2-amino-3,5-dibromobenzyl)amino)cyclohexanol] | 1.01 | 11.4 | able to increase lifespan | healthspan was extended | results in between the Control Group and the “High Dose” Group | best cognitive acuity results | dose-related improvement |
